“And” between values parts separate entries of the source, which are not always exact repeats. Identical values can stand only once. “Also recorded” adds a separate entry of the source.
How the values were obtained:
[1] = system: HIV-1 reverse transcriptase; assay: HIV-1 reverse transcriptase activity in culture supernatant of infected Sup T1 cells; assay type: cell-based; conditions: for Percent Inhibition of HIV-1 Reverse Transcriptase: 300 μM (adenosine and adenine 900 μM), 6 h pre-treatment, 96 h post-infection, average of triplicates
Protocol: Sup T1 cells were treated with 2-5A or a phosphorothioate/phosphodiester derivative at 300 μM for 6 hours and then infected with HIV-1 at a multiplicity of infection (M.O.I) of approximately 0.1. Adenosine and adenine were tested at 900 μM. At 96 hours post-infection, culture supernatant was removed and HIV-1 RT activity was assayed in triplicate as described by Henderson et al., Virology 182:186-198 (1991). Briefly in this method, 25 μl of culture supernatant was added to a 50 μl cocktail containing 50 mM Tris (pH 8.0), 20 mM dithiothreitol, 10 mM MgCl2, 60 mM NaCl, 0.05 Nonidet p-40, 5 μg/ml oligodeoxythymidylic acid, 10 μg/ml polyriboadenylic acid, 10 μM deoxythymidine triphosphate and 1 mCi [^32 p]thymidine 5'-triphosphate. The mixture was incubated at 37° C. for 2 hours. Fifty microliters of the cocktail were then spotted onto diethylaminoethyl (DEAE) paper, dried, washed with 2× SSC solution (three times for 10 minutes each time) and 95% ethanol (two times for 5 minutes each time), dried and exposed to radiographic film for 18 to 24 hours at -80° C. The filters were cut and final quantitation was determined by scintillation spectrometry.

HIV-1 strain IIIB = assay: Inhibition of HIV-1-induced syncytia formation (infected centers assay); assay type: cell-based; conditions: for inhibition of syncytia formation (in words): 3×10^-4 M (adenosine 9×10^-4 M); for inhibition of HIV-1-induced syncytia formation: 3×10^-4 M, PBL infected with HIV-1 IIIB, Sup T1 cells, read at 72 h
Description: FIG. 5A represents the results of an assay performed according to the method of Henderson et al., Virology 182: 186-198 (1991), indicating the inhibition of HIV-1 (IIIB)-induced syncytia formation by adenosine, 2-5A trimer or tetramer core or 2',5'- phosphorothioate/phosphodiester trimer derivatives: ARp *ApA, ASp *ApA, ApARp *A, ApASp *A, ARp *ApApA, ASp *ApApA, ApARp *ApA, ApASp *ApA, ApApARp *A, ApApASp *A.
FIG. 5B is the results of an assay performed according to the method of FIG. 5A with a 2',5'-phosphorothioate/phosphodiester tetramer derivative of 2-5A core.
The infected centers assay as described by Henderson et al., Virology 182: 186-198 (1991), was used to measure the ability of the phosphorothioate/phosphodiester derivatives of 2-5A trimer and tetramer cores to inhibit HIV-1 induced syncytia formation, an indicator of HIV-1 replication in T cells. Freshly isolated peripheral blood lymphocytes (PBL) were treated with 2-5A or derivatives for 2 h and infected with HIV-1 strain IIIB at a m.o.i. of approximately 0.1. The infected PEL were maintained in RPMI-1640 medium supplemented with 10% (v/v) heat-inactivated fetal calf serum at 37° C. in a humidified 5% CO2 in air atmosphere. After 48 h, the cells were washed twice in Hank's balaned salt solution, serially diluted and seeded into multiple wells of a 96-well microtiter plate. Immediately, 2×10^5 exponentially growing Sup T1 cells were added to each well; Sup T1 cells readily form a syncytium with a cell which is productively infected with HIV-1. The wells were examined daily for the presence of syncytia, using a tissue culture microscope. The first signs of syncytia formation can be seen in 12 h, with some complete syncytia developing by 24 h. Final results were read at 72 h. Each syncytium was counted as a single infected cell. The number of syncytia per seeded cell is determined and expressed as an infected center per infected cell. In the control (no 2-5A derivative added), 100% syncytia formation was equivalent to 12±3 syncytia per 200 HIV-1 infected cells.

serum phosphodiesterases = assay: Stability of 2-5A core derivatives to serum phosphodiesterase; assay type: in vitro ADME, fetal calf; conditions: for Hydrolysis Products / % Hydrolysis: 300 μM, 37° C.; for Hydrolysis Products: 10% fetal calf serum, 6 h, identified by HPLC; for % Hydrolysis: RPMI-1640 + 10% fetal calf serum, 6 h (A2, A3: 20 min); for hydrolysis (in words): serum-containing medium
Protocol: The stability of authentic 2-5A and phosphorothioate/phosphodiester trimer and tetramer core derivatives (300 μM) was determined by incubation in 200 μL of RPMI-1640 medium supplemented with 10% fetal calf serum in 5% CO2 -in-air at 37° C. Aliquots (30 μL) were removed at time zero and 6 hours. The hydrolysis products were identified by HPLC as described in Kariko et al. , Biochemistry 26: 7127-7135 (1987).
No hydrolysis of the phosphorothioate/phosphodiester trimer core derivatives was observed. However, the phosphorothioate/phosphodiester tetramer core derivatives were hydrolyzed from the 5'- or 2',3'-terminus, depending on the location of the phosphorothioate-substituted internucleotide linkage.

Compound	inhibition of HIV-1 RT activity (in words) [1]	Percent Inhibition of HIV-1 Reverse Transcriptase [1]	inhibition of syncytia formation (in words) (HIV-1 strain IIIB)	inhibition of syncytia formation (in words) (HIV-1 strain IIIB; listed as Adenosine)	Hydrolysis Products (serum phosphodiesterases)	% Hydrolysis (serum phosphodiesterases)	inhibition of HIV-1-induced syncytia formation (HIV-1 strain IIIB)	hydrolysis (in words) (serum phosphodiesterases)
Nc1ncnc2c1ncn2[C@@H]1O[C@H](CO)[C@@H](O)[C@H]1O [adenosine, reference compound]	did not inhibit HIV-1 RT activity	0%	did not inhibit syncytia formation	not able to inhibit syncytia formation	–	–	–	–
Adenylyl-(2',5')-(PS)-P-thioadenylyl-(2',5')-adenylyl-(2',5')-adenosine [ApASp *ApA]	–	42%	–	–	inosine, hypoxanthine; also recorded: ASp *ApA	50%	32%	–
(PS)-P-thioadenylyl-(2',5')-adenylyl-(2',5')-adenylyl-(2',5')-adenosine [ASp *ApApA]	–	54%	–	–	inosine, hypoxanthine; also recorded: ASp *A	50% and 100%	18%	rapidly hydrolyzed from the 2',3'-terminus
(PR)-P-thioadenylyl-(2',5')-adenylyl-(2',5')-adenylyl-(2',5')-adenosine [ARp *ApApA]	–	57%	–	–	inosine, hypoxanthine; also recorded: ARp *A	50% and 100%	16%	rapidly hydrolyzed from the 2',3'-terminus
Nc1ncnc2nc[nH]c12 [adenine, reference compound]	did not inhibit HIV-1 RT activity	4%	not able to inhibit syncytia formation	–	–	–	–	–
Adenylyl-(2',5')-adenylyl-(2',5')-(PS)-P-thioadenylyl-(2',5')-adenosine [ApApASp *A]	–	62%	most efficient inhibitors	–	inosine, hypoxanthine; also recorded: ApASp *A	33%	76%	degraded from the 5'-terminus; also recorded: hydrolyzed from the 5'-terminus
